Several values for one entry are separate records, joined by “and”; a condition that tells them apart may be missing. Equal values may be shown once. Results filed as inconclusive are left out.

The test system of this experiment is MX-1 breast xenograft, intrarenal, nude mice, tumor weight. Put plainly: NCI In Vivo Anticancer Drug Screen. Data for tumor model Human Mammary Carcinoma MX-1 Xenograft (intrarenal inoculation) in NU/NU BALB/C (nude) mice. To be noted: endpoint: mean tumor weight change, higher = larger tumour. A digest of the protocol: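 Efficacy in vivo: tumor measurement or survival of treated animals divided by that of vehicle-dosed controls.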

[1] abbreviates: dose: 2.0 mg/kg/injection, schedule: Q04DX003 (ip), vehicle: water.
Where [2] appears, read: dose: 50.0 mg/kg/injection, schedule: Q04DX003 (ip), vehicle: saline.

`OCC1OC(n2cnc3c(=S)nc[nH]c32)C(O)C1O` (configuration not stated): the T/C by setting is: (dose: 300.0 mg/kg/injection, schedule: Q04DX003 (sc), vehicle: saline) 86 % of control; (dose: 600.0 mg/kg/injection, schedule: Q04DX003 (sc), vehicle: saline) 58 % of control; (dose: 1200.0 mg/kg/injection, schedule: Q04DX003 (sc), vehicle: saline) 59 % of control and 75 % of control; (dose: 1600.0 mg/kg/injection, schedule: Q04DX003 (sc), vehicle: saline) 49 % of control; (dose: 2000.0 mg/kg/injection, schedule: Q04DX003 (sc), vehicle: saline) 65 % of control; (dose: 2400.0 mg/kg/injection, schedule: Q04DX003 (sc), vehicle: saline) 23 % of control and 39 % of control.
As for `Cc1ccc(C2=CSC3=NCCN23)cc1Cl`, the T/C (dose: 37.5 mg/kg/injection, schedule: Q04DX003 (ip), vehicle: saline) is 85 % of control.
In the case of `Cc1ccc(C(=O)NC2C(=O)NC(C(C)C)C(=O)N3CCCC3C(=O)N(C)CC(=O)N(C)C(C(C)C)C(=O)OC2C)c2c1Oc1c(c(C(=O)NC3C(=O)NC(C(C)C)C(=O)N4CCCC4C(=O)N(C)CC(=O)N(C)C(C(C)C)C(=O)OC3C)c3nc(-c4ccccc4)c(=O)oc3c1C)N2` (configuration not stated), the T/C was 16 % of control and 26 % of control (dose: 1.0 mg/kg/injection, schedule: Q04DX003 (ip), vehicle: water); 5 % of control under setting [1].
As for `CC1C(c2ccccc2)OC(N2CCOCC2)C(C)(C)CN1C` (configuration not stated), the T/C is, setting by setting: (dose: 150.0 mg/kg/injection, schedule: Q04DX003 (ip), vehicle: saline with Tween-80) 112 % of control; (dose: 300.0 mg/kg/injection, schedule: Q04DX003 (ip), vehicle: saline with Tween-80) 101 % of control; (dose: 600.0 mg/kg/injection, schedule: Q04DX003 (ip), vehicle: saline with Tween-80) 82 % of control.
For the compound `CN=C(NC#N)NCCSCc1nc[nH]c1C`, the T/C (dose: 600.0 mg/kg/injection, schedule: Q04DX003 (sc), vehicle: Klucel (hydroxypropylcellulose) (HPC)) was 108 % of control.
For the compound `COc1cccc2c1C(=O)c1c(O)c3c(c(O)c1C2=O)C[C@@](O)(/C(C)=N\O)C[C@@H]3OC1CC(N)C(O)C(C)O1` (some centres not stated), the T/C is, setting by setting: (dose: 12.5 mg/kg/injection, schedule: Q04DX003 (sc), vehicle: saline) 64 % of control; (dose: 25.0 mg/kg/injection, schedule: Q04DX003 (sc), vehicle: saline) 58 % of control; (dose: 50.0 mg/kg/injection, schedule: Q04DX003 (sc), vehicle: saline) 23 % of control.
For `C=C(OC)C(Nc1cc(OC)c(OC)cc1C(=O)OC1CC(O[C@@H]2C(=O)C(NC(=O)OC)=C3/C(=C\CSSSC)[C@]2(O)C#C/C=C\C#C[C@@H]3OC2OC(C)C(NOC3CC(O)C(SC)C(C)O3)C(O)C2OC2CC(OC)C(NCCC)CO2)OC(C)C1O)OC` (some centres not stated), the T/C by setting is: (dose: 0.31 micrograms/kg/injection, schedule: Q04DX003 (ip), vehicle: alcohol) 71 % of control; (dose: 0.32 micrograms/kg/injection, schedule: Q04DX003 (ip), vehicle: saline + alcohol) 39 % of control; (dose: 0.62 micrograms/kg/injection, schedule: Q04DX003 (ip), vehicle: alcohol) 68 % of control; (dose: 0.64 micrograms/kg/injection, schedule: Q04DX003 (ip), vehicle: saline + alcohol) 17 % of control; (dose: 1.25 micrograms/kg/injection, schedule: Q04DX003 (ip), vehicle: alcohol) 22 % of control; (dose: 1.28 micrograms/kg/injection, schedule: Q04DX003 (ip), vehicle: saline + alcohol) 27 % of control. Besides, the T/C is, setting by setting: (dose: 2.5 micrograms/kg/injection, schedule: Q04DX003 (ip), vehicle: alcohol) 26 % of control; (dose: 2.56 micrograms/kg/injection, schedule: Q04DX003 (ip), vehicle: saline + alcohol) 13 % of control; (dose: 5.0 micrograms/kg/injection, schedule: Q04DX003 (ip), vehicle: alcohol) 12 % of control.
On to `N#Cc1c(-c2ccc(F)cc2)c(-c2ccc(F)cc2)nn(CCO)c1=O`, for which the T/C (dose: 50.0 mg/kg/injection, schedule: Q04DX003 (ip), vehicle: distilled water + Tween-80) is 109 % of control and the T/C (dose: 400.0 mg/kg/injection, schedule: Q04DX003 (ip), vehicle: distilled water + Tween-80) is -28 % of control.
As for `CN(C)CCCN=c1c2ccccc2n(C)c2[nH]c(=O)n(C)c(=O)c12`, the T/C by setting is: (dose: 25.0 mg/kg/injection, schedule: Q04DX003 (ip), vehicle: saline) 112 % of control; under setting [2], 82 % of control.
Regarding `CC1(O)C=CC(=O)C=C1`, the T/C is, setting by setting: (dose: 25.0 mg/kg/injection, schedule: Q04DX003 (ip), vehicle: water) 96 % of control; (dose: 50.0 mg/kg/injection, schedule: Q04DX003 (ip), vehicle: water) 64 % of control.
As to `CCC(NC(N)=O)C(CC)NC(N)=O` (configuration not stated), the T/C (dose: 6.25 mg/kg/injection, schedule: Q04DX003 (ip), vehicle: saline with Tween-80) is 89 % of control; the T/C (dose: 12.5 mg/kg/injection, schedule: Q04DX003 (ip), vehicle: saline with Tween-80) was 78 % of control; the T/C (dose: 25.0 mg/kg/injection, schedule: Q04DX003 (ip), vehicle: saline with Tween-80) is 74 % of control.
For the compound `C/C(=N\NC(=S)N1CC2CCC(CC2)C1)c1nccs1`, under “dose: 75.0 mg/kg/injection, schedule: Q04DX003 (ip), vehicle: saline with Tween-80”, the T/C was 78 % of control.
As for `CN(C)/N=N/c1nc[nH]c1C(N)=O`, the T/C reads like this: (dose: 50.0 mg/kg/injection, schedule: Q04DX003 (ip), vehicle: Klucel (hydroxypropylcellulose) (HPC)) 74 % of control; (dose: 75.0 mg/kg/injection, schedule: Q04DX003 (ip), vehicle: Klucel (hydroxypropylcellulose) (HPC)) 87 % of control; (dose: 112.0 mg/kg/injection, schedule: Q04DX003 (ip), vehicle: Klucel (hydroxypropylcellulose) (HPC)) 82 % of control; (dose: 200.0 mg/kg/injection, schedule: Q01DX010 (sc), vehicle: Klucel (hydroxypropylcellulose) (HPC)) 70 % of control; (dose: 400.0 mg/kg/injection, schedule: Q01DX010 (sc), vehicle: Klucel (hydroxypropylcellulose) (HPC)) 14 % of control.
With `CCOC(=O)/C=C/C(=O)N1CCN(C(=O)/C=C/C(=O)OCC)C(C)C1` (configuration not stated), the T/C is 103 % of control (dose: 150.0 mg/kg/injection, schedule: Q04DX003 (ip), vehicle: Klucel (hydroxypropylcellulose) (HPC)); 83 % of control (dose: 300.0 mg/kg/injection, schedule: Q04DX003 (ip), vehicle: Klucel (hydroxypropylcellulose) (HPC)); 77 % of control (dose: 600.0 mg/kg/injection, schedule: Q04DX003 (ip), vehicle: Klucel (hydroxypropylcellulose) (HPC)).
Take `O=C1CN(CCN2CC(=O)N(CN3CCOCC3)C(=O)C2)CC(=O)N1CN1CCOCC1`: the T/C was 56 % of control (dose: 150.0 mg/kg/injection, schedule: Q04DX003 (ip), vehicle: water) and 58 % of control (dose: 300.0 mg/kg/injection, schedule: Q04DX003 (ip), vehicle: water).
Consider `COc1cccc2c1C(=O)c1c(O)c3c(c(O)c1C2=O)C[C@@](O)(C(=O)CO)C[C@@H]3OC1CC(N)C(O)C(C)O1` (some centres not stated), for which the T/C by setting is: under setting [1], 33 % of control; (dose: 4.0 mg/kg/injection, schedule: Q04DX003 (ip), vehicle: water) 7 % of control; (dose: 8.0 mg/kg/injection, schedule: Q04DX003 (ip), vehicle: water) -88 % of control.
Consider `O=C(Nc1cccnc1)c1ccc([N+](=O)[O-])s1`, for which the T/C under setting [2] was 92 % of control; the T/C (dose: 100.0 mg/kg/injection, schedule: Q04DX003 (ip), vehicle: saline) was 81 % of control and 90 % of control; the T/C (dose: 200.0 mg/kg/injection, schedule: Q04DX003 (ip), vehicle: saline) was 92 % of control and 103 % of control; the T/C (dose: 400.0 mg/kg/injection, schedule: Q04DX003 (ip), vehicle: saline) was 80 % of control; the T/C (dose: 800.0 mg/kg/injection, schedule: Q04DX003 (ip), vehicle: saline) is 105 % of control.
`NC(Cc1ccc(N(CCCl)Cc2ccccc2)cc1)C(=O)O` (configuration not stated): the T/C by setting is: (dose: 100.0 mg/kg/injection, schedule: Q04DX003 (ip), vehicle: saline with Tween-80) 6 % of control and 14 % of control; (dose: 120.0 mg/kg/injection, schedule: Q04DX003 (ip), vehicle: saline with Tween-80) 3 % of control; (dose: 200.0 mg/kg/injection, schedule: Q04DX003 (ip), vehicle: saline with Tween-80) 7 % of control and -15 % of control; (dose: 333.33 mg/kg/injection, schedule: Q04DX003 (ip), vehicle: saline with Tween-80) -90 % of control.

(Values after PubChem BioAssay AID298 (DTP/NCI, 2004).)
